# Patent US12403144B2, “HECT E3 ligase inhibitors and uses thereof” (IFOM FONDAZIONE ISTITUTO FIRC DI ONCOLOGIA MOLECOLARE, priority 2019, dated 2025)
# Structures can show the parent of a compound that is named as a salt.
# Target: T1, untagged HECT of NEDD4 wild-type (WT) (E3 ligase) (Homo sapiens, UniProt P46934)
# T1 construct: untagged HECT of NEDD4 wild-type (WT) (E3 ligase); made in house
# T1 sequence (P46934 519-900 isoform P46934-4 limits assumed): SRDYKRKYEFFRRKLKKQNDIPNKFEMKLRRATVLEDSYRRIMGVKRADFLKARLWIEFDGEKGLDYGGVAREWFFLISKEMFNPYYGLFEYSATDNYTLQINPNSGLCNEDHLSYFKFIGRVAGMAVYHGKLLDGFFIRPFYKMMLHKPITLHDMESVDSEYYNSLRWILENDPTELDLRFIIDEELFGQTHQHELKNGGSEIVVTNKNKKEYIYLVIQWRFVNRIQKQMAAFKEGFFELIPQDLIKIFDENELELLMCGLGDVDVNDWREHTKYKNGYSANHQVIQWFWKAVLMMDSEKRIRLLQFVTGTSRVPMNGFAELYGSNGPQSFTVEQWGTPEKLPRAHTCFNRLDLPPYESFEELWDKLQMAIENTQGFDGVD
# Assay: In vitro ubiquitination assay TR-FRET based (self-ubiquitination of NEDD4)
# Type: biochemical
# Conditions: at 11 μM; pre-incubated for 1 hour; AUC of 120 minutes kinetic; read-out: percentages of inhibition (NEDD4)
# In short: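 Mix of E1, His-UBE2D3 and untagged NEDD4 HECT (final 30, 350, 50 nM) with Eu-cryptate/Cy5/unlabelled ubiquitin in pH 7.6 Tris buffer, compounds (100–0.005 μM dilution series) pre-incubated 1 h, then started with ATP. 665/620 nm TR-FRET followed 120 min; % inhibition from AUC versus DMSO, no-ATP background.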
row,SMILES,inhibition at 11 µM
1,"O=C(/C=C/CNCCCCN1c2ccccc2CCc2ccc(Cl)cc21)NOC1CCNCC1 [Compound 83, (E)-4-[4-(3-Chloro-10,11-dihydro-5H-dibenzo[b,f]azepin-5-yl)butylamino]-N-(4-piperidyloxy)-but-2-enamide dimaleate]",> 50%
2,"CCOC(=O)/C=C/CNCCCCN1c2cc(Cl)ccc2C(=O)N(CCOCCOC)c2ccccc21 [Compound 86, Ethyl (E)-4-{[4-(3-chloro-10-[2-(2-methoxyethoxy)ethyl]-11-oxo-10,11-dihydro-5H-dibenzo[b,e][1,4]diazepin-5-yl)butyl]amino}but-2-enoate maleate]",> 50%
3,"CCOC(=O)/C=C/CNCCCCN1c2cc(Cl)ccc2C(=O)N(CCOCCOCCOC)c2ccccc21 [Compound 87, Ethyl (E)-4-{[4-(3-chloro-10-[2-[2-(2-methoxyethoxy)ethoxy]ethyl]-11-oxo-10,11-dihydro-5H-dibenzo[b,e][1,4]diazepin-5-yl)butyl]amino}but-2-enoate maleate]",> 50%
4,"C#CCOCCN1C(=O)c2ccc(Cl)cc2N(CCCCNC/C=C/C(=O)OCC)c2ccccc21 [Compound 88, Ethyl (E)-4-{[4-[3-chloro-10-[2-(prop-2-yn-1-yloxy)ethyl]-11-oxo-10,11-dihydro-5H-dibenzo[b,e][1,4]diazepin-5-yl)butyl]amino}but-2-enoate maleate]",> 50%
5,"C#CCOCCOc1ccc2c(c1)CCc1ccc(Cl)cc1N2CCCCN(C)C/C=C/C(=O)OC [Compound 89, Methyl (E)-4-{4-[7-chloro-2-(2-prop-2-ynoxyethoxy)-10,11-dihydro-5H-dibenzo[b,f]azepin-5-yl]-butyl-methyl-amino}-but-2-enoate maleate]",> 50%
6,"C#CCOCCOc1ccc2c(c1)CCc1ccc(Cl)cc1N2CCCCN(C)C/C=C/C#N [Compound 90, (E)-4-{4-[7-chloro-2-(2-prop-2-ynoxyethoxy)-10,11-dihydro-5H-dibenzo[b,f]azepin-5-yl]butyl-methyl-amino}but-2-enenitrile maleate]",> 50%
7,"C#CCOC(=O)/C=C/CNCCCCN1c2ccccc2CCc2ccc(Cl)cc21 [Compound 91, Prop-2-yn-1-yl (E)-4-[4-(3-chloro-10,11-dihydro-5H-dibenzo[b,f]azepin-5-yl)butylamino]but-2-enoate maleate]",> 50%
8,"C#CCOCCOC(=O)/C=C/CNCCCCN1c2ccccc2CCc2ccc(Cl)cc21 [Compound 92, 2-Prop-2-ynyloxy-ethyl (E)-4-[4-(3-chloro-10,11-dihydro-5H-dibenzo[b,f]azepin-5-yl)butylamino]but-2-enoate maleate]",> 50%
9,"COCCOCCOC(=O)/C=C/CNCCCCN1c2ccccc2CCc2ccc(Cl)cc21 [Compound 93, 2-(2-Methoxy-ethoxy)-ethyl (E)-4-[4-(3-chloro-10,11-dihydro-dibenzo[b,f]azepin-5-yl)-butylamino]but-2-enoate maleate]",> 50%
10,"CN(C/C=C/C(=O)OCCOCCOCCOCCOCCOCCNC(=O)CCCC[C@@H]1SC[C@@H]2NC(=O)N[C@@H]21)CCCCN1c2ccccc2CCc2ccc(Cl)cc21 [Compound 95, 2-(2-{2-[2-(2-{2-[5-((3aS,4S,6aR)-2-Oxo-hexahydro-thieno[3,4-d]imidazol-4-yl)-pentanoylamino]-ethoxy}-ethoxy)-ethoxy]-ethoxy}-ethoxy)-ethyl (E)-4-{[4-(3-chloro-10,11-dihydro-dibenzo[b,f]azepin-5-yl)-butyl]-methyl-amino}but-2-enoate]",> 50%
11,"CN(C/C=C/C(=O)OCCOCCOCCOCCOCCOCCOCCOCCNC(=O)CCCC[C@@H]1SC[C@@H]2NC(=O)N[C@@H]21)CCCCN1c2ccccc2CCc2ccc(Cl)cc21 [Compound 96, 2-(2-{2-[2-(2-{2-[2-(2-[5-((3aS,4S,6aR)-2-Oxo-hexahydro-thieno[3,4-d]imidazol-4-yl)-pentanoylamino]-ethoxy)-ethoxy]-ethoxy}-ethoxy)-ethoxy]-ethoxy}-ethoxy)-ethyl (E)-4-{[4-(3-chloro-10,11-dihydro-dibenzo[b,f]azepin-5-yl)-butyl]-methyl-amino} but-2-enoate]",> 50%
12,"CCOC(=O)/C=C/CNCCCCN1c2ccc(OCCOC)cc2CCc2ccc(Cl)cc21 [Compound 97, Ethyl (E)-4-{4-[7-Chloro-2-(2-methoxy-ethoxy)-10,11-dihydro-5H-dibenzo[b,f]azepin-5-yl]-butylamino}-but-2-enoate maleate]",> 50%
13,"CCOC(=O)/C=C/CNCCCCN1c2ccc(OCCOCCOC)cc2CCc2ccc(Cl)cc21 [Compound 98, Ethyl (E)-4-(4-{7-chloro-2-[2-(2-methoxy-ethoxy)-ethoxy]-10,11-dihydro-5H-dibenzo[b,f]azepin-5-yl}-butylamino)-but-2-enoate maleate]",> 50%
14,"CN(C/C=C/C#N)CCCCN1c2ccc(OCCOCc3cn(CCOCCOCCOCCNC(=O)CCCC[C@@H]4SC[C@@H]5NC(=O)N[C@@H]54)nn3)cc2CCc2ccc(Cl)cc21 [Compound 99, 5-((3aS,4S,6aR)-2-Oxo-hexahydro-thieno[3,4-d]imidazol-4-yl)-(2-{2-[2-(2-{4-[2-(7-chloro-5-{4-[((E)-3-cyano-allyl)-methyl-amino]-butyl}-10,11-dihydro-5H-dibenzo[b,f]azepin-2-yloxy)-ethoxymethyl]-[1,2,3]triazol-1-yl}-ethoxy)-ethoxy]-ethoxy}-ethyl)pentanamide]",> 50%
15,"C#CCOc1ccc2c(c1)CCc1ccc(Cl)cc1N2CCCCNC/C=C/C(=O)OCC [Compound 100, Ethyl (E)-4-[4-(7-Chloro-2-prop-2-ynyloxy-10,11-dihydro-dibenzo[b,f]azepin-5-yl)-butylamino]-but-2-enoate maleate]",> 50%
16,"CCOC(=O)/C=C/CNCCCCN1c2ccc(OCc3ccccc3)cc2CCc2ccc(Cl)cc21 [Compound 101, Ethyl (E)-4-[4-(2-benzyloxy-7-chloro-10,11-dihydro-dibenzo[b,f]azepin-5-yl)-butylamino]-but-2-enoate maleate]",< 30%
17,"COCCOC(=O)/C=C/CNCCCCN1c2ccccc2CCc2ccc(Cl)cc21 [Compound 102, 2-methoxy-ethyl (E)-4-[4-(3-chloro-10,11-dihydro-dibenzo[b,f]azepin-5-yl)-butylamino]-but-2-enoate maleate]",> 50%
